Target: EGFR-L858R/T790M (Homo sapiens, UniProt P00533, L858R/T790M)
Assay: radiolabeled 33P
Type: biochemical
Details: statement in text referring to Table 1

EGFR-L858R/T790M, sequence (P00533 25-1210 T790M/L858R): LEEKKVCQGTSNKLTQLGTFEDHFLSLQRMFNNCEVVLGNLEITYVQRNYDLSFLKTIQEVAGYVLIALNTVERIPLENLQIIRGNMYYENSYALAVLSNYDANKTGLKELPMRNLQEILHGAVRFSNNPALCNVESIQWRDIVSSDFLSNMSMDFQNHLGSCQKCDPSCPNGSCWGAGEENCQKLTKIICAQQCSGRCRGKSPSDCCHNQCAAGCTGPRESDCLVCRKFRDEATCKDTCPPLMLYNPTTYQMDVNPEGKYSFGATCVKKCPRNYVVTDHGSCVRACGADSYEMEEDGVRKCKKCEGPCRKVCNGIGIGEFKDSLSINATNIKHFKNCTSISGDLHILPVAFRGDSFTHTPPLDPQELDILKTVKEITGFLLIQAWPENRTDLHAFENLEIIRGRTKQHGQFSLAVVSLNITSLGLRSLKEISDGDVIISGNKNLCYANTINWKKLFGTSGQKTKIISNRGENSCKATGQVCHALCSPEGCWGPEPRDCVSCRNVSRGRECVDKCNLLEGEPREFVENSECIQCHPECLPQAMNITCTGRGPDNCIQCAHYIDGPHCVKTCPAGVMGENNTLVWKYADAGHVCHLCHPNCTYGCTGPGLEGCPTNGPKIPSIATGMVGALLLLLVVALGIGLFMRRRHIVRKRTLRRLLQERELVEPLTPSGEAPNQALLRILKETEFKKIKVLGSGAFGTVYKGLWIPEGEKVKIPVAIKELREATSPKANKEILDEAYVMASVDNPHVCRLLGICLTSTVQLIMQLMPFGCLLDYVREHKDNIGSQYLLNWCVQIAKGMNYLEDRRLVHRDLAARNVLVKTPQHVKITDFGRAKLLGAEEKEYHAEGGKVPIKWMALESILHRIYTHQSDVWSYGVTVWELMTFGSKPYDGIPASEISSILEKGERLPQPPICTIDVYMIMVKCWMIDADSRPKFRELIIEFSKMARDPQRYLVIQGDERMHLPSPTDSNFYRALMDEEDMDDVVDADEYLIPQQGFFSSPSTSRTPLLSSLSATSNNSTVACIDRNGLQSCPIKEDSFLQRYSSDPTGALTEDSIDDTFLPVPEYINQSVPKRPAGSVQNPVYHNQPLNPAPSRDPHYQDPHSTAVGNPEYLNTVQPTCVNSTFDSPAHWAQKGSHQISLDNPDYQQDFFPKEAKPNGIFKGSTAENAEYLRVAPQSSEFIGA

potency against EGFR(L858R/T790M), in words: low nanomolar potency
Structure (SMILES): C=CC(=O)Nc1ccc(OC)c(Nc2cc(-c3nc(SC)n(C)c3-c3ccc(F)cc3)ccn2)c1 [Compound 7, N-(3-((4-(5-(4-fluorophenyl)-1-methyl-2-(methylthio)-1H-imidazol-4-yl)pyridin-2-yl)amino)-4-methoxyphenyl)acrylamide]
